From patent US20240317722A1, “HETEROARYL-3-PIPERIDINEDIONE COMPOUND AND USE THEREOF” (Medshine Discovery Inc., priority 2021, published 2024)

Tests used:
Assay type in all cases: cell-based
NCI-H69 = assay: Anti-proliferative effect in NCI-H69 (CellTiter-Glo); settings: NCI-H69, 3 days; for IC50: Homo sapiens, 72 h
Method: (§1) This assay studied the inhibitory effect of the compounds on cell proliferation by detecting the effect of the test compounds on the in vitro activity of tumor cells NCI-H1581, DMS114, NCI-H69 and NCI-H526.
(§2) The tumor cell lines were cultured in an incubator at 37° C., 5% CO2 or 0% CO2 according to the above culture conditions. The cells were periodically passaged, and cells in logarithmic growth phase were taken for plating. • 2. Cell plating • (1). Cells were stained with trypan blue and viable cells were counted.
(§3) • (3). 100 μL of cell suspension was added to each well of the culture plate, and culture medium without cells was added to the blank control well. • (4). The plate was incubated overnight in an incubator at 37° C., 5% CO2 or 0% CO2, and 100% relative humidity. • 3. Preparation of compound stock solution
(§4) Preparation of 1000× compound stock solution: Compound was dissolved in DMSO to 10 mM, then a portion was taken out and diluted to 1000 times the highest acting concentration. The diluted stock solution was dispensed for later use. • 4. Preparation of 5× compound working solution and treatment of cells with compounds. The working solutions were prepared freshly at each time for use. • (1). Preparation of 5× compound working solution: 119.4 μL of cell culture medium was added to a 96-well plate with a V-shaped bottom. 96 μL of DMSO-cell culture medium mix solution (with DMSO content of 0.5%) was added to subsequent gradient wells. 0.6 μL of the compound from the 1000× compound stock solution was added to the cell culture medium in the 96-well plate, and mixed to uniform with a pipette. A pipette was used to draw 24 μL of the compound-cell culture medium mixture into subsequent wells, and the mixture was mixed well by a pipette each time. • (2). Dosing: 25 μL of 5× compound working solution was added to the cell culture plate. 25 μL of DMSO-cell culture medium mix solution (with DMSO content of 0.5%) was added to the vehicle control and blank control. • (3). The 96-well cell plate was placed back into the incubator and cultured for 3 days. • 5. CellTiter-Glo luminescence cell viability detection
(§5) The following steps were performed according to the instruction of Promega CellTiter-Glo luminescence cell viability detection kit (Promega-G7573). • (1). The CellTiter-Glo buffer was thawed and allowed to stand to reach room temperature; • (2). CellTiter-Glo substrate was allowed to stand to reach room temperature; • (3). 10 mL of CellTiter-Glo buffer was added to CellTiter-Glo substrate in a bottle to dissolve the substrate to formulate CellTiter-Glo working solution; • (4). […] The culture plates were left at room temperature for 10 minutes to stabilize the luminescence signal; • (9). The luminous signal was detected on the 2104 En Vision plate reader. • 6. […]

DMS114 = assay: Anti-proliferative effect in DMS114 (CellTiter-Glo); settings: DMS114, 3 days; for IC50: Homo sapiens, DMS-114, 72 h
Method: as §1, §2, §3, §4, §5

NCI-H526 = assay: Anti-proliferative effect in NCI-H526 (CellTiter-Glo); settings: NCI-H526, 3 days; for IC50: Homo sapiens, 72 h
Method: as §1, §2, §3, §4, §5

GSPT1 = GSPT1 (Homo sapiens, UniProt P15170+Q96SW2); assay: Target protein degradation in HEK293T-LgBiT_GSPT1-nHiBiT cells (HiBiT luminescence); set-up: expressed in transfected cells; settings: 16 to 18 hours; for Dmax: read-out: Max. DR (maximum degradation rate)
Method: This assay was performed to detect the degradation effect of the test compound on the target protein GSPT1 in HEK293T-LgBiT cells.
• 1. Preparation of compounds • (1). Dissolving the powder of the test compound with DMSO to 10 mM as the storage concentration, and using a pipette to manually draw 9 μL of 10 mM or 3 mM test compound to columns 1 and 13 of a LDV plate; • (2). Using multidrop Combi to add 6 μL of DMSO to columns 2-12 and 14-24; • (3). Using Bravo to dilute the test compound 3 times (3 μL+6 μL) from columns 1 to 11 and 13 to 23; • (4). According to the layout of the plate, using Echo to transfer 25 nL of compound solution (columns 1-24 of the LDV plate) to the assay plate; • (5). Using Echo to transfer 25 nL of 1 mM positive control solution to the assay plate as a 100% degradation control (i.e. LC, HPE), and to transfer 25 nL of DMSO to the assay plate as a 0% control (i.e. HC, ZPE). • 2. Cell plating • (1). Discarding the cell culture medium, and washing the cells once with DPBS; then the cells were trypsinized, counted, and used to prepare a cell suspension of 4×10^5 cells/mL; • (2). Using MultiDrop Combi to add 25 μL/well of cell suspension at medium speed to the assay plate containing the test compound; • (3). Putting the assay plate containing cells back into the incubator and culturing it at 37° C. and 5% CO2 for 16 to 18 hours.
• (1). Using MultiDrop Combi to add 25 μL/well of detection reagent (NanoGlo lysis solution+substrate+LgBit protein) to the assay plate at high speed, and shaking for 10 minutes; • (2). Centrifuging at 2000 rpm×1 min to remove bubbles; • (3). Reading the plate using Envision, US Luminescence detection method.
The following formula was used to calculate the degradation rate (DR) of the test compound: DR (%)=(RLU of vehicle control−RLU of compound)/(RLU of vehicle control−RLU of positive control)*100%, wherein the vehicle control was a blank control. The degradation rates of compounds at different concentrations were calculated in Excel, and then XLFit software was used to obtain inhibition curves and to calculate relevant parameters, including the minimum degradation rate, maximum degradation rate and DC50.

Chain of GSPT1 (P15170 whole entry): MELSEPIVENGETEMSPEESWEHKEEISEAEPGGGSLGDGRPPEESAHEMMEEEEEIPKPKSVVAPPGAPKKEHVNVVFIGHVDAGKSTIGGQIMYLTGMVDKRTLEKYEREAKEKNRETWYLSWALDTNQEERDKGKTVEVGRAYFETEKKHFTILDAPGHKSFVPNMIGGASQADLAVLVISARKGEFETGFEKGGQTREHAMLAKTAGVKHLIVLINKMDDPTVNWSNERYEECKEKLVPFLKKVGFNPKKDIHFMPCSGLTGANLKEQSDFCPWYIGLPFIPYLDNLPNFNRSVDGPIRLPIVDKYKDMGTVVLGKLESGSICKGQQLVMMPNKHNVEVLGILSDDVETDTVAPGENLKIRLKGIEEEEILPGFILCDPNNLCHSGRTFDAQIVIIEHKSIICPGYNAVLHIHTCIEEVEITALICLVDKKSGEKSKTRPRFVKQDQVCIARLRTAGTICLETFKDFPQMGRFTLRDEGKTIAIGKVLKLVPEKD
Chain of GSPT1 (Q96SW2 whole entry): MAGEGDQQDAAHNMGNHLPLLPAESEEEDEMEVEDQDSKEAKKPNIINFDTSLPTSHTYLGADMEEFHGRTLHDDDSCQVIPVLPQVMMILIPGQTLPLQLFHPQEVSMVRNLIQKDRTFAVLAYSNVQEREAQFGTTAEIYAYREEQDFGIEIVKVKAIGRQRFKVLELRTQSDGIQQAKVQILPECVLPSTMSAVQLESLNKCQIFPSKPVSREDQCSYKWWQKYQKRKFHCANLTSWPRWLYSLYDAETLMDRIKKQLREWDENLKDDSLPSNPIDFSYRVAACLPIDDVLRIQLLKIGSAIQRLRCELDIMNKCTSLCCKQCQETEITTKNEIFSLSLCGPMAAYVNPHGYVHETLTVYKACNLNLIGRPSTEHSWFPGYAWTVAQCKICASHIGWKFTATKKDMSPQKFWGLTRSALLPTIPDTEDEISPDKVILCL
Chain of GSPT1 (Q16531 whole entry partner): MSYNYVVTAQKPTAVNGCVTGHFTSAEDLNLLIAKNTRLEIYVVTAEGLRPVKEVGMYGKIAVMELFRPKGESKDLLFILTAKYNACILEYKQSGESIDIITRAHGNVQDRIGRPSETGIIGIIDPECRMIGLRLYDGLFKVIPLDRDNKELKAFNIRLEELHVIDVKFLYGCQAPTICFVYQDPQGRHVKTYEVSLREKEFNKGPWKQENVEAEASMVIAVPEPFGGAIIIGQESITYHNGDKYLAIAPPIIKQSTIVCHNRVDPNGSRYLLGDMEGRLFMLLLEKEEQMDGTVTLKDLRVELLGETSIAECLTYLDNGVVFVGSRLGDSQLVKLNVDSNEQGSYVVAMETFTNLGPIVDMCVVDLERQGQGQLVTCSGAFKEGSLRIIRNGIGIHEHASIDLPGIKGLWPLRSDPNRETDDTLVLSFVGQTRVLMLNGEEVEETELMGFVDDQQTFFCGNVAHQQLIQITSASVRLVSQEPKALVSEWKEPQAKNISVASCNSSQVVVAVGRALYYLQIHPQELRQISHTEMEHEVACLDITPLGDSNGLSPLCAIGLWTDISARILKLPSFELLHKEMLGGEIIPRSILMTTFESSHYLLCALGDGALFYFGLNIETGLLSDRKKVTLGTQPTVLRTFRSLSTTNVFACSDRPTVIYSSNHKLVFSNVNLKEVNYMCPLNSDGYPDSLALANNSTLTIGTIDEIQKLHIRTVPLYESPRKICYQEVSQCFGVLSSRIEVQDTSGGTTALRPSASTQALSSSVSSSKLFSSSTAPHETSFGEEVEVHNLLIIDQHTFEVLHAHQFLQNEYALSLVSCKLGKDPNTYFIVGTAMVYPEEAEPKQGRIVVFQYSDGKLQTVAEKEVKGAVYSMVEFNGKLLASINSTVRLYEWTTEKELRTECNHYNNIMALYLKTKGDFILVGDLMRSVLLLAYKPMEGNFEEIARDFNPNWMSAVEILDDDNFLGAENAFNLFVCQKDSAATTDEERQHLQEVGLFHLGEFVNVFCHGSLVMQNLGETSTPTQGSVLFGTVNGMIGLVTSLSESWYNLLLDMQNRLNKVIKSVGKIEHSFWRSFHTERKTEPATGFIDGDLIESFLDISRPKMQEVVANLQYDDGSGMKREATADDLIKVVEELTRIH

| IC50 (NCI-H69) | IC50 (NCI-H526) | DC50 (GSPT1) | Dmax (GSPT1) | Compound | Max. IR (NCI-H69) | Max. IR (DMS114) | IC50 (DMS114) | Max. IR (NCI-H526) |
| --- | --- | --- | --- | --- | --- | --- | --- | --- |
| 1.3 nM | 0.1 nM | 1.07 nM | 100% | COCCOc1cc(NC(=O)NCc2ccc3c(C4CCC(=O)NC4=O)noc3c2)cc(Cl)c1C (stereo not shown) [WX013] | 70.53% | 87.56% | 2.1 nM | 99.37% |
| 6.2 nM | 0.5 nM | 2.51 nM | 100% | COCCOc1cc(NC(=O)NCc2ccc3c(C4CCC(=O)NC4=O)coc3c2)cc(Cl)c1C (stereo not shown) [WX005] | 68.41% | 89.45% | 6.1 nM | 99.17% |
